The text below walks through data of US20170121268A1, “PPAR MODULATORS” (THE GOVERNING COUNCIL OF THE UNIVERSITY OF TORONTO, priority 2014, published 2017).

By pEC50 is commonly meant the negative decadic logarithm of the EC50, by convention in mol/L. A word on the melting point: it is the temperature, or range, at which the solid turns liquid.

One series deals with T1, GAL4-hPPARγ (Homo sapiens, UniProt P37231).
T1 sequence (P37231 238-505 limits assumed): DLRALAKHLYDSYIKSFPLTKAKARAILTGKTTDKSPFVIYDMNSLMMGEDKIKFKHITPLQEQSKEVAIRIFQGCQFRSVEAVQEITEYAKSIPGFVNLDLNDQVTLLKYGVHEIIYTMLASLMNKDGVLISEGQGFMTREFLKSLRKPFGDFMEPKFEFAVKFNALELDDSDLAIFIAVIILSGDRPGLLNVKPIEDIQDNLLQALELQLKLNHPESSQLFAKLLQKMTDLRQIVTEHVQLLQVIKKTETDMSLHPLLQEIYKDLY
Briefly: GAL4-hPPARγ-UAS-luciferase reporter assay in transiently transfected HEK293 cells. The format is cell-based. The note with it: for PPARγ agonist profile compared to rosiglitazone control / pEC50: dose-response, HEK293 cells; for pEC50: read-out: EC50 for PPARγ; for PPARγ reporter response relative to vehicle: dosed at 50 μM. As to the method:
(§1) HEK293 cells were maintained in Dulbecco's modified Eagle's medium supplemented with 10% fetal bovine serum. Cell transfection was performed in media containing 10% charcoal-stripped fetal bovine serum using calcium phosphate in 96-well plates. The total amount of plasmid DNA (150 ng/well) included 50 ng UAS-Iuc reporter, 20 ng β-galactosidase, 15 ng nuclear receptor (GAL4-hPPARα and GAL4-hPPARγ) and pGEM filler plasmid. Ligands were added at 6 to 8 hours post transfection. Cells harvested 14 to 16 hours later were assayed for luciferase and β-galactosidase activity.

Series [1] concerns PPARγ target genes in 3T3-L1 pre-adipocytes. Description: 3T3-L1 differentiation assay, expression of PPARγ target genes (QPCR). It is filed as cell-based. As to conditions: 25 μM, day 11. As to the method:
(§2) 3T3-L1 cells were maintained in Dulbecco's modified Eagle's medium supplemented with 10% fetal calf serum. Adipocyte differentiation was induced in two-days postconfluent cells by treating the cells with 100 μg/ml isobutylmethylxanthine, 1 μM dexamethasone, and 5 μg/ml insulin with 10% FBS in DMEM (Day 0). Rosiglitazone and LDT ligands were added at the start of differentiation. Two days later, cells were switched to the medium containing 5 μg/ml insulin with 10% FBS. After an additional 72 hrs, cells were switched to maintenance media containing 10% FBS in DMEM. Thereafter, the media was changed every 2 days. Cells were harvested on day 11 for RNA expression and Oil Red O was used to estimate lipid accumulation.
(§3) Total RNA was extracted from cells using RNA STAT-60 (Tel-Test Inc.), followed by DNase I treatment (RNase-free; Roche), and reverse transcribed into cDNA with random hexamers using the High Capacity Reverse Transcription System (ABI; Applied Biosystems). Real-time quantitative PCR (QPCR) analysis was performed on an ABI 7900 in 384-well plates using 2×SYBR Green PCR Master Mix (ABI). Relative mRNA levels were calculated using the comparative Ct method normalized to cyclophilin mRNA.

A further series has as its target T2, GAL4-hPPARα (Homo sapiens, UniProt Q07869).
T2 sequence (Q07869 200-468 limits assumed): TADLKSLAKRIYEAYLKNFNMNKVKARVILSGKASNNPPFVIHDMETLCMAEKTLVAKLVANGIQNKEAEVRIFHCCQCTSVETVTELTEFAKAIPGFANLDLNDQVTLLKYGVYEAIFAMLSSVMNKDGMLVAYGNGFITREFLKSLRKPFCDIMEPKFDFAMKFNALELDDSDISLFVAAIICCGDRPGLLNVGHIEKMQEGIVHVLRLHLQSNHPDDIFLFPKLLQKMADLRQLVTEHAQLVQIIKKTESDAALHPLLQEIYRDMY
Briefly: GAL4-hPPARα-UAS-luciferase reporter assay in transiently transfected HEK293 cells. It is filed as cell-based. As to conditions: for pEC50 / PPARα agonist profile compared to the full agonist GW7647: dose-response, HEK293 cells; for pEC50: read-out: EC50 for PPARα; for PPARα reporter response relative to vehicle: dosed at 50 μM. The method, then:
as §1
For orientation: A reporter such as luciferase makes a cellular process visible.

A further series relates to 3T3-L1 cells. Briefly: Oil Red O staining of 3T3-L1 adipocytes after 11 days of differentiation. It is filed as cell-based. The note with it: 25 μM. As to the method: as §2
Following 11 days of differentiation, cells were washed with PBS twice and fixed in 10% neutral buffered formalin (Sigma) for 1 h at room temperature, followed by two ddH2O and two washes with 60% isopropanol. Cells were then stained with 0.6% (w/v) Oil Red O solution (60% isopropanol, 40% water) for 10 min at room temperature, followed by five washes with ddH2O to remove unbound dye and images were taken with Leica M205 FA microscope.

Series [2] deals with PPARα target genes in primary mouse hepatocytes. Description: Primary hepatocyte assay, expression of PPARα target genes (QPCR). The format is cell-based. As to conditions: 50 μM, 24 hrs. The method, then: Mouse primary hepatocytes were isolated by collagenase perfusion as previously described (Patel et al. 2011). Cells were plated onto type I collagen-coated plates at 0.5×10^6 cells per well for 2 hours in attachment media (William's E Media, 10% charcoal stripped FBS, 1× penicillin/streptomycin, and 10 nM insulin), and then switched to overnight media (M199 Media, 5% charcoal stripped FBS, 1× penicillin/streptomycin, and 1 nM insulin). Ligand treatments were carried out on the following day in M199 media without FBS. Cells were harvested 24 hrs later for RNA extraction.
as §3

The conditions of series [3]: women on drug; cited from earlier work.

pEC50: −log10 of the molar value.

With `CCCCCCCCCCCCCCCc1cccc(O)c1C(=O)O` [LDT11], on GAL4-hPPARγ, the “PPARγ agonist profile compared to rosiglitazone control” value is “full agonist profile” and the pEC50 was 4.92. Besides, in series [1], the GLUT4 expression result was “augmented” and the adiponectin expression result is reported as “significantly increased”. On GAL4-hPPARα, the pEC50 is 5.05. In addition, the “adipocyte differentiation by Oil red O staining” value (shortened to “adipocyte differentiation”) in the series on 3T3-L1 cells is given as “less adipogenic compared to Rosi”.

As for `CCCCCCCCCCCCCCCc1cccc(OC(C)=O)c1C(=O)O` [LDT13], on GAL4-hPPARγ, the “PPARγ agonist profile compared to rosiglitazone control” value was “partial PPARγ agonists”. Moreover, the negative logarithm of the EC50 (pEC50) on GAL4-hPPARγ was 4.92; at GAL4-hPPARα, 5.15. Besides, in series [1], the GLUT4 expression result is recorded as “augmented”.

Turning to `CCCCCCCCCCCCCCCc1cccc(OCC(=O)OCC)c1` [LDT15], on GAL4-hPPARγ, the “PPARγ agonist profile compared to rosiglitazone control” value is “partial PPARγ agonists” and the negative-log EC50 (pEC50) was 4.38. Also, in series [2], the “CD36 expression (hepatocytes)” value is “significantly increased”, the FABP1 expression result was “significantly increased”, the Fgf21 expression result is reported as “upregulation” and the PDK4 expression entry is recorded as “upregulated”. In series [1], the GLUT4 expression entry was “augmented”, the UCP2 expression result is on record as “upregulated” and the adiponectin expression result was “induced to a similar degree as Rosi”. Moreover, the negative-log EC50 (pEC50) at GAL4-hPPARα is 5.46. In addition, the “adipocyte differentiation” value with 3T3-L1 cells is recorded as “less adipogenic compared to Rosi”.

Take `CCCCCCCCCCCCCCCc1cccc(OCC(=O)O)c1` [LDT16]: on GAL4-hPPARγ, the “PPARγ agonist profile compared to rosiglitazone control” value is recorded as “full agonist profile” and the negative-log EC50 (pEC50) is 5.44. Moreover, on GAL4-hPPARα, the pEC50 was 6.05.

For the compound `CCCCCCCCCCCCCCCc1cccc(OC)c1C(=O)O` [LDT30], the UCP2 expression result in series [1] was “upregulated”. Further, the pEC50 at GAL4-hPPARα was 4.49.

For `CCOC(=O)COc1cccc(CCCCCCCCO)c1` [LDT296, Ethyl 2-(3-(8-hydroxyoctyl)phenoxy)acetate], the “PPARγ agonist profile compared to rosiglitazone control” value on GAL4-hPPARγ is given as “less potent, full agonist profile”. The “PPARα agonist profile compared to the full agonist GW7647” value on GAL4-hPPARα is listed as “less potent partial PPARα agonists”.

Turning to `CCOC(=O)COc1cccc(CCCCCCCC(=O)O)c1` [LDT298, 8-(3-(2-Ethoxy-2-oxoethoxy)phenyl)octanoic acid], the “increase in reporter activity in the PPARγ activation assay” value on GAL4-hPPARγ (FIG. 5B, dose not given) is listed as “comparable luciferase activation”. In addition, the “increase in activity as compared to Veh in the PPARα activation assay” value on GAL4-hPPARα (FIG. 5A, dose not given) is recorded as “comparable luciferase activation”. In addition, on GAL4-hPPARα, the “PPARα agonist profile compared to the full agonist GW7647” value is on record as “less potent partial PPARα agonists” and the pEC50 is 5.89.

Turning to `CCCCCCCCCCCCCCCc1cccc(OC(C)(C)C(=O)OCC)c1` [LDT408], the “PPARγ agonist profile compared to rosiglitazone control” value at GAL4-hPPARγ is on record as “partial PPARγ agonists”. In series [2], the “CD36 expression (hepatocytes)” value is “significantly increased”, the FABP1 expression result was “significantly increased” and the PDK4 expression entry is reported as “upregulated”. In addition, in series [1], the GLUT4 expression entry is on record as “augmented”, the UCP2 expression entry was “upregulated” and the adiponectin expression result is reported as “significantly increased”. The “adipocyte differentiation” value with 3T3-L1 cells is on record as “less adipogenic compared to Rosi”.

For the compound `CCCCCCCCCCCCCCCc1cccc(OC(C)(C)C(=O)O)c1` [LDT409], in series [1], the GLUT4 expression result is on record as “augmented”, the UCP2 expression entry is given as “upregulated” and the adiponectin expression result is on record as “induced to a similar degree as Rosi”. Besides, at GAL4-hPPARα, the pEC50 is 6.70. For the same compound, the “adipocyte differentiation” value with 3T3-L1 cells is “comparable to Rosi”.

Consider `CC(C)(Oc1cccc(CCCCCCCCO)c1)C(=O)O` [LDT477, 2-(3-(8-hydroxyoctyl)phenoxy)-2-methylpropanoic acid], for which, on GAL4-hPPARγ, the “PPARγ agonist profile compared to rosiglitazone control” value is on record as “full agonist profile”, the negative-log EC50 (pEC50) is 4.85 and the “PPARγ reporter response relative to vehicle” value is “most active”. In series [1], the GLUT4 expression result was “upregulated”. Besides, at GAL4-hPPARα, the “PPARα agonist profile compared to the full agonist GW7647” value is reported as “less potent partial PPARα agonists”, the pEC50 was 4.70 and the “PPARα reporter response relative to vehicle” value was “most active”. The “adipocyte differentiation” value with 3T3-L1 cells is “able to induce adipocyte differentiation”.

In the case of `CCOC(=O)C(C)(C)Oc1cccc(CCCCCCCC(=O)O)c1` [LDT478, 8-(3-((1-ethoxy-2-methyl-1-oxopropan-2-yl)oxy)phenil)octanoic acid], on GAL4-hPPARγ, the “PPARγ agonist profile compared to rosiglitazone control” value is “full agonist profile” and the pEC50 was 4.85. On GAL4-hPPARα, the “PPARα agonist profile compared to the full agonist GW7647” value is given as “less potent partial PPARα agonists” and the pEC50 is 4.43.

`CCOC(=O)CCCCCCCc1cccc(OCC(=O)OCC)c1` [LDT480, Ethyl 8-(3-(2-ethoxy-2-oxoethoxy)phenyl)octanoate]: on GAL4-hPPARγ, the “PPARγ agonist profile compared to rosiglitazone control” value is on record as “full agonist profile”, the negative logarithm of the EC50 (pEC50) is 4.68 and the “PPARγ reporter response relative to vehicle” value is given as “most active”. Besides, at GAL4-hPPARα, the “PPARα agonist profile compared to the full agonist GW7647” value was “less potent partial PPARα agonists”, the negative-log EC50 (pEC50) is 5.41 and the “PPARα reporter response relative to vehicle” value is “most active”.

`CCOC(=O)CCCCCCCc1cccc(OC(C)(C)C(=O)OCC)c1` [LDT481, Ethyl 8-(3-((1-ethoxy-2-methyl-1-oxopropan-2-yl)oxy)phenyl)octanoate]: the melting point is 39 to 42 °C. The GLUT4 expression result in series [1] was “upregulated”. Besides, in the series on 3T3-L1 cells, the “adipocyte differentiation” value is recorded as “able to induce adipocyte differentiation”.

As for `CCc1ccc(CCOc2ccc(CC3SC(=O)NC3=O)cc2)nc1` (centres unmarked) [pioglitazone], the “rate of distal bone fractures” value in series [3] is given as “two-fold increased rate”.

As for `CN(CCOc1ccc(CC2SC(=O)NC2=O)cc1)c1ccccn1` (centres unmarked) [rosiglitazone], the “rate of distal bone fractures” value in series [3] was “two-fold increased rate”.
